pIC50: −log10 of the molar value.
Target: T1, human recombinant mGluR5 receptor (Homo sapiens, UniProt P41594)
T1 construct: expressed in transfected cells; expression induced with doxycycline
Assay: mGluR5 in vitro functional assay (aequorin cell line, inhibition of glutamate EC80 response)
Format: cell-based
Details: Table 2; aequorin cell line expressing human mGluR5, reference agonist glutamate at EC80; obtained in duplicate; read-out: IC50
Procedure, shortened: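 Doxycycline-induced (600 ng/mL, 18 h) aequorin cells loaded with coelenterazine h ≥4 h at room temperature; compound preincubated 3 min before glutamate at EC80. Luminescence recorded, normalized to digitonin or 20 mM ATP wells; % inhibition of EC80 response fitted by sigmoidal nonlinear regression.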

T1 sequence (P41594 21-1212): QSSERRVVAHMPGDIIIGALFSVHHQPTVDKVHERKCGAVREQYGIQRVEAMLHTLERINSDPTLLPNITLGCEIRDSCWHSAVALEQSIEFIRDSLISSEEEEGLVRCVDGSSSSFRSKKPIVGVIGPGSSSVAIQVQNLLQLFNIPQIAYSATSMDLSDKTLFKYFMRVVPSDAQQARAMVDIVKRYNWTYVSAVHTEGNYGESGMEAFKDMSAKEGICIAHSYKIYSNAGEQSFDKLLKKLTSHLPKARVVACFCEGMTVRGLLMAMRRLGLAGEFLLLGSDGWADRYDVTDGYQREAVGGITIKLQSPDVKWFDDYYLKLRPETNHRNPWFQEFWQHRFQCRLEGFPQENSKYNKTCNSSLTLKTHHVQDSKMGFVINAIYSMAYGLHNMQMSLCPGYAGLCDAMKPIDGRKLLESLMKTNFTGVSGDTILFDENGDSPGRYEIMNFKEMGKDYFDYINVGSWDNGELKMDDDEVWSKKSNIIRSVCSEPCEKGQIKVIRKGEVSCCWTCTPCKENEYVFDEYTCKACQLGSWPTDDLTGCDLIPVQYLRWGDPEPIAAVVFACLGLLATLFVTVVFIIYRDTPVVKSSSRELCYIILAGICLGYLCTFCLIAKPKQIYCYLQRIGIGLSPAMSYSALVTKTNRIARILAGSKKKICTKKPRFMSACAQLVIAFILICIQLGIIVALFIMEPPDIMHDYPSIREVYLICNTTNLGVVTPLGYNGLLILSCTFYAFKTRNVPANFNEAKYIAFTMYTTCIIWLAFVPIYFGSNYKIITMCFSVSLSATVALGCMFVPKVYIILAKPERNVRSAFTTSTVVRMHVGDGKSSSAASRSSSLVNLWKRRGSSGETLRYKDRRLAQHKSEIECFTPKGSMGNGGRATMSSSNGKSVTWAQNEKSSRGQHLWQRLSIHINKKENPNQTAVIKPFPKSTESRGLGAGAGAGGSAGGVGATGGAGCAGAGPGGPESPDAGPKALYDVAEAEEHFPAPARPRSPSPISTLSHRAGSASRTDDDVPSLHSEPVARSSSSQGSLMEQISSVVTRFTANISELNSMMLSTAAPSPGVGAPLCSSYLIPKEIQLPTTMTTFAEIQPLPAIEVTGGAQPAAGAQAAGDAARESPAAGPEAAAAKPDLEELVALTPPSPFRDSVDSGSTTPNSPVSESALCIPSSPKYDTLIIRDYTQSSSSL

Row | SMILES | pIC50
1 | Fc1ccc(-c2nc3c(o2)CCN(c2cc(F)cc(Cl)c2)C3)nc1 [Compound 159, 5-(3-Chloro-5-fluorophenyl)-2-(5-fluoropyridin-2-yl)-4,5,6,7-tetrahydrooxazolo[4,5-c]pyridine] | > 6.00
2 | N#Cc1cc(F)cc(N2CCc3oc(-c4cncnc4)nc3C2)c1 [Compound 160, 3-Fluoro-5-(2-(pyrimidin-5-yl)-6,7-dihydrooxazolo[4,5-c]pyridin-5(4H)-yl)benzonitrile] | < 5.00
3 | Cc1nc(-c2nc3c(o2)CCN(c2ccccn2)C3)cs1 [Compound 161, 2-(2-Methylthiazol-4-yl)-5-(pyridin-2-yl)-4,5,6,7-tetrahydrooxazolo[4,5-c]pyridine] | > 6.00
4 | Clc1cc(Cl)cc(N2CCc3oc(-c4ccccn4)nc3C2)c1 [Compound 162, 5-(3,5-Dichlorophenyl)-2-(pyridin-2-yl)-4,5,6,7-tetrahydrooxazolo[4,5-c]pyridine] | > 6.00
5 | Cc1nc(N2CCc3oc(-c4ccccn4)nc3C2)cs1 [Compound 163, 5-(2-Methylthiazol-4-yl)-2-(pyridin-2-yl)-4,5,6,7-tetrahydrooxazolo[4,5-c]pyridine] | > 6.00
6 | N#Cc1cc(F)cc(-c2nc3c(o2)CCN(c2ccccn2)C3)c1 [Compound 164, 3-Fluoro-5-(5-(pyridin-2-yl)-4,5,6,7-tetrahydrooxazolo[4,5-c]pyridin-2-yl)benzonitrile] | > 5.00
7 | Fc1ccc(-c2nc3c(o2)CCN(c2ccccc2Cl)C3)nc1 [Compound 167, 5-(2-Chlorophenyl)-2-(5-fluoropyridin-2-yl)-4,5,6,7-tetrahydrooxazolo[4,5-c]pyridine] | > 6.00
8 | Clc1ccccc1N1CCc2oc(-c3ccncn3)nc2C1 [Compound 168, 5-(2-Chlorophenyl)-2-(pyrimidin-4-yl)-4,5,6,7-tetrahydrooxazolo[4,5-c]pyridine] | > 5.00
9 | Cc1nc(-c2nc3c(o2)CCN(c2ccccc2Cl)C3)cs1 [Compound 172, 5-(2-Chlorophenyl)-2-(2-methylthiazol-4-yl)-4,5,6,7-tetrahydrooxazolo[4,5-c]pyridine] | > 6.00
10 | N#Cc1cc(Cl)cc(N2CCc3oc(-c4ccccn4)nc3C2)c1 [Compound 186, 3-Chloro-5-(2-(pyridin-2-yl)-6,7-dihydrooxazolo[4,5-c]pyridin-5(4H)-yl)benzonitrile] | > 6.00
11 | Clc1cccnc1N1CCc2oc(-c3ccccn3)nc2C1 [Compound 187, 5-(3-Chloropyridin-2-yl)-2-(pyridin-2-yl)-4,5,6,7-tetrahydrooxazolo[4,5-c]pyridine] | > 6.00
12 | Fc1cc(F)c(F)c(N2CCc3oc(-c4ccccn4)nc3C2)c1 [Compound 188, 2-(Pyridin-2-yl)-5-(2,3,5-trifluorophenyl)-4,5,6,7-tetrahydrooxazolo[4,5-c]pyridine] | > 6.00
13 | O=C(CN1CCc2oc(-c3cccc(Cl)c3)nc2C1)c1ccc(F)cc1 [Compound 190, 2-(2-(3-Chlorophenyl)-6,7-dihydrooxazolo[4,5-c]pyridin-5(4H)-yl)-1-(4-fluorophenyl)ethanone] | > 5.00
14 | O=C(CN1CCc2oc(-c3cccc(F)c3)nc2C1)c1ccc(F)cc1 [Compound 191, 1-(4-Fluorophenyl)-2-(2-(3-fluorophenyl)-6,7-dihydrooxazolo[4,5-c]pyridin-5(4H)-yl)ethanone] | < 5.00
15 | O=C(CN1CCc2oc(-c3ccccn3)nc2C1)c1ccc(F)cc1 [Compound 192, 1-(4-Fluorophenyl)-2-(2-(pyridin-2-yl)-6,7-dihydrooxazolo[4,5-c]pyridin-5(4H)-yl)ethanone] | < 5.00
16 | CC(C)(c1ccccn1)c1nc2c(o1)CCN(c1cc(F)cc(C#N)c1)C2 [Compound 195, 3-Fluoro-5-(2-(2-(pyridin-2-yl)propan-2-yl)-6,7-dihydrooxazolo[4,5-c]pyridin-5(4H)-yl)benzonitrile] | < 5.00
17 | CC1(C)CN(c2ccc(F)cc2Cl)Cc2nc(-c3ccccn3)oc21 [Compound 196, 5-(2-Chloro-4-fluorophenyl)-7,7-dimethyl-2-(pyridin-2-yl)-4,5,6,7-tetrahydrooxazolo[4,5-c]pyridine] | < 5.00
18 | Fc1ccc(N2CCCc3oc(-c4ccccn4)nc3C2)cc1F [Compound 197, 5-(3,4-Difluorophenyl)-2-(pyridin-2-yl)-5,6,7,8-tetrahydro-4H-oxazolo[4,5-c]azepine] | > 6.00
19 | Clc1cncc(N2CCCc3oc(-c4ccccn4)nc3C2)c1 [Compound 198, 5-(5-Chloropyridin-3-yl)-2-(pyridin-2-yl)-5,6,7,8-tetrahydro-4H-oxazolo[4,5-c]azepine] | > 6.00
20 | Fc1cc(Cl)cc(N2CCCc3oc(-c4ccccn4)nc3C2)c1 [Compound 199, 5-(3-Chloro-5-fluorophenyl)-2-(pyridin-2-yl)-5,6,7,8-tetrahydro-4H-oxazolo[4,5-c]azepine] | > 6.00
21 | Fc1ccc(N2CCCc3oc(-c4ncccn4)nc3C2)cc1F [Compound 200, 5-(3,4-Difluorophenyl)-2-(pyrimidin-2-yl)-5,6,7,8-tetrahydro-4H-oxazolo[4,5-c]azepine] | < 5.00
22 | Clc1cncc(N2CCCc3oc(-c4ncccn4)nc3C2)c1 [Compound 201, 5-(5-Chloropyridin-3-yl)-2-(pyrimidin-2-yl)-5,6,7,8-tetrahydro-4H-oxazolo[4,5-c]azepine] | > 5.00

Now from value to molecule:

Row | pIC50 | SMILES
23 | > 6.00 | N#Cc1cc(F)ccc1N1CCc2oc(-c3ccccn3)nc2C1 [Compound 165, 5-Fluoro-2-(2-(pyridin-2-yl)-6,7-dihydrooxazolo[4,5-c]pyridin-5(4H)-yl)benzonitrile]
24 | > 6.00 | Fc1ccccc1N1CCc2oc(-c3ccccn3)nc2C1 [Compound 166, 5-(2-Fluorophenyl)-2-(pyridin-2-yl)-4,5,6,7-tetrahydrooxazolo[4,5-c]pyridine]
25 | > 6.00 | Fc1ccc(F)c(N2CCc3oc(-c4ccccn4)nc3C2)c1 [Compound 169, 5-(2,5-Difluorophenyl)-2-(pyridin-2-yl)-4,5,6,7-tetrahydrooxazolo[4,5-c]pyridine]
26 | > 6.00 | Clc1cccc(N2CCc3oc(-c4ccccn4)nc3C2)c1Cl [Compound 170, 5-(2,3-Dichlorophenyl)-2-(pyridin-2-yl)-4,5,6,7-tetrahydrooxazolo[4,5-c]pyridine]
27 | > 6.00 | Fc1ccc(N2CCc3oc(-c4ccccn4)nc3C2)c(Cl)c1 [Compound 171, 5-(2-Chloro-4-fluorophenyl)-2-(pyridin-2-yl)-4,5,6,7-tetrahydrooxazolo[4,5-c]pyridine]
28 | > 6.00 | Clc1ccc(Cl)c(N2CCc3oc(-c4ccccn4)nc3C2)c1 [Compound 173, 5-(2,5-Dichlorophenyl)-2-(pyridin-2-yl)-4,5,6,7-tetrahydrooxazolo[4,5-c]pyridine]
29 | > 6.00 | Clc1cccc(Cl)c1N1CCc2oc(-c3ccccn3)nc2C1 [Compound 174, 5-(2,6-Dichlorophenyl)-2-(pyridin-2-yl)-4,5,6,7-tetrahydrooxazolo[4,5-c]pyridine]
30 | > 6.00 | Fc1ccc(Cl)c(N2CCc3oc(-c4ccccn4)nc3C2)c1 [Compound 175, 5-(2-Chloro-5-fluorophenyl)-2-(pyridin-2-yl)-4,5,6,7-tetrahydrooxazolo[4,5-c]pyridine]
31 | > 6.00 | N#Cc1ccc(F)cc1N1CCc2oc(-c3ccccn3)nc2C1 [Compound 176, 4-Fluoro-2-(2-(pyridin-2-yl)-6,7-dihydrooxazolo[4,5-c]pyridin-5(4H)-yl)benzonitrile]
32 | > 6.00 | COc1ccccc1N1CCc2oc(-c3ccccn3)nc2C1 [Compound 177, 5-(2-Methoxyphenyl)-2-(pyridin-2-yl)-4,5,6,7-tetrahydrooxazolo[4,5-c]pyridine]
33 | > 6.00 | Oc1ccccc1N1CCc2oc(-c3ccccn3)nc2C1 [Compound 178, 2-(2-(Pyridin-2-yl)-6,7-dihydrooxazolo[4,5-c]pyridin-5(4H)-yl)phenol]
34 | > 6.00 | COc1ccc(F)cc1N1CCc2oc(-c3ccccn3)nc2C1 [Compound 179, 5-(5-Fluoro-2-methoxyphenyl)-2-(pyridin-2-yl)-4,5,6,7-tetrahydrooxazolo[4,5-c]pyridine]
35 | > 6.00 | N#Cc1ccccc1N1CCc2oc(-c3ccccn3)nc2C1 [Compound 180, 2-(2-(Pyridin-2-yl)-6,7-dihydrooxazolo[4,5-c]pyridin-5(4H)-yl)benzonitrile]
36 | > 6.00 | c1ccc(-c2nc3c(o2)CCN(c2cccc4ccccc24)C3)nc1 [Compound 181, 5-(Naphthalen-1-yl)-2-(pyridin-2-yl)-4,5,6,7-tetrahydrooxazolo[4,5-c]pyridine]
37 | > 6.00 | FC(F)(F)c1ccccc1N1CCc2oc(-c3ccccn3)nc2C1 [Compound 182, 2-(Pyridin-2-yl)-5-(2-(trifluoromethyl)phenyl)-4,5,6,7-tetrahydrooxazolo[4,5-c]pyridine]
38 | > 5.00 | Clc1cnccc1N1CCc2oc(-c3ccccn3)nc2C1 [Compound 184, 5-(3-Chloropyridin-4-yl)-2-(pyridin-2-yl)-4,5,6,7-tetrahydrooxazolo[4,5-c]pyridine]
39 | > 6.00 | N#Cc1ccc(F)c(N2CCc3oc(-c4ccccn4)nc3C2)c1 [Compound 185, 4-Fluoro-3-(2-(pyridin-2-yl)-6,7-dihydrooxazolo[4,5-c]pyridin-5(4H)-yl)benzonitrile]
40 | > 6.00 | N#Cc1c(F)cccc1N1CCc2oc(-c3ccccn3)nc2C1 [Compound 189, 2-Fluoro-6-(2-(pyridin-2-yl)-6,7-dihydrooxazolo[4,5-c]pyridin-5(4H)-yl)benzonitrile]
41 | > 6.00 | c1ccc(-c2nc3c(o2)CCN(c2ccccc2N2CCOCC2)C3)nc1 [Compound 193, 5-(2-Morpholinophenyl)-2-(pyridin-2-yl)-4,5,6,7-tetrahydrooxazolo[4,5-c]pyridine]
42 | > 6.00 | c1ccc(-c2nc3c(o2)CCN(c2cccc4[nH]ccc24)C3)nc1 [Compound 194, 5-(1H-Indol-4-yl)-2-(pyridin-2-yl)-4,5,6,7-tetrahydrooxazolo[4,5-c]pyridine]

Reference: patent US20120029190A1, “COMPOUNDS FOR TREATING DISORDERS MEDIATED BY METABOTROPIC GLUTAMATE RECEPTOR 5, AND METHODS OF USE THEREOF” (priority 2009, published 2012)
